# Key:
# duck salad = test: Test B flood test duck salad; format: in vivo, Heteranthera limosa
# Outline: (§1)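 Plants were grown to the 2-leaf stage before treatment with test chemical, then held in a greenhouse for twelve to sixteen days. Injury was visually rated against untreated controls on a 0–10 scale, where 0 is no effect and 10 is complete control.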
# soybean = test: Test B pre/postemergence soybean; format: in vivo, Glycine max
# Outline: (§2)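 Test chemicals in a non-phytotoxic solvent mixture with surfactant were sprayed preemergence onto planted seeds and postemergence onto plants 2 to 18 cm tall (1- to 4-leaf stage). After twelve to sixteen days in a greenhouse, injury was visually rated against untreated controls from 0 (no effect) to 10 (complete control).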
# crabgrass = test: Test B pre/postemergence crabgrass; format: in vivo, Digitaria sanguinalis
# Outline: as §2
# blackgrass = test: Test B pre/postemergence blackgrass; format: in vivo, Alopecurus myosuroides
# Outline: as §2
# surinam grass = test: Test B pre/postemergence surinam grass; format: in vivo, Brachiaria decumbens
# Outline: as §2
# velvetleaf = test: Test B pre/postemergence velvetleaf; format: in vivo, Abutilon theophrasti
# Outline: as §2
# bedstraw = test: Test B pre/postemergence bedstraw; format: in vivo, Galium aparine
# Outline: as §2
# sugar beet = test: Test B pre/postemergence sugar beet; format: in vivo, Beta vulgaris
# Outline: as §2
# rice = test: Test B flood test rice; format: in vivo, Oryza sativa
# Outline: as §1
# cocklebur = test: Test B pre/postemergence cocklebur; format: in vivo, Xanthium strumarium
# Outline: as §2
# wheat = test: Test B pre/postemergence wheat; format: in vivo, Triticum aestivum
# Outline: as §2
# corn = test: Test B pre/postemergence corn; format: in vivo, Zea mays
# Outline: as §2
# giant foxtail = test: Test B pre/postemergence giant foxtail; format: in vivo, Setaria faberii
# Outline: as §2
# purple nutsedge = test: Test B pre/postemergence purple nutsedge; format: in vivo, Cyperus rotundus
# Outline: as §2
# wild oat = test: Test B pre/postemergence wild oat; format: in vivo, Avena fatua
# Outline: as §2
# pigweed = test: Test B pre/postemergence pigweed; format: in vivo, Amaranthus retroflexus
# Outline: as §2
# [1] = Postemergence, Rate 62 g/ha, scale 0 to 10, 0 is no effect, 10 is complete control
# [2] = Rate 125 g/ha, Postemergence section (flood test species), scale 0 to 10, 0 no effect, 10 complete control
# [3] = Rate 500 g/ha, Postemergence section of Table B, 0 to 10 scale (0 no effect, 10 complete control)
# [4] = flood test, listed under Postemergence, Rate 250 g/ha, scale 0 to 10, 0 no effect, 10 complete control
# [5] = Postemergence, Rate 250 g/ha, scale 0 to 10, 0 no effect, 10 complete control
# [6] = Preemergence, Rate 62 g/ha, scale 0 to 10, 0 is no effect, 10 is complete control
# [7] = Preemergence, Rate 125 g/ha, scale 0 to 10 (0 no effect, 10 complete control)
# [8] = Preemergence, Rate 250 g/ha, scale of 0 to 10 where 0 is no effect and 10 is complete control
# [9] = Preemergence, Rate 500 g/ha, scale 0 (no effect) to 10 (complete control)
# [10] = Rate 125 g/ha, Postemergence, scale 0 to 10, 0 no effect, 10 complete control
# [11] = Rate 500 g/ha, Postemergence, 0 to 10 scale (0 no effect, 10 complete control)
compound,measurement,setting,value
CC(C)N(C(=O)n1oc(=O)n(-c2cc(Cl)ccc2Cl)c1=O)c1ccc(F)cc1 [Compound 16],Ducksalad plant response rating,duck salad; [1],0
same,Ducksalad plant response rating,duck salad; [2],0
same,Ducksalad plant response rating,duck salad; [3],0
same,Ducksalad plant response rating,duck salad; [4],0
same,Soybean plant response rating,soybean; [1],1
same,Soybean plant response rating,soybean; [5],1
same,"Plant response rating, Soybean",soybean; [6],0
same,"Plant response rating, Soybean",soybean; [7],0
same,"Plant response rating, Soybean",soybean; [8],0
same,Soybean plant response rating,soybean; [9],0
same,Soybean plant response rating,soybean; [10],1
same,Crabgrass plant response rating,crabgrass; [1],0
same,Crabgrass plant response rating,crabgrass; [5],0
same,"Plant response rating, Crabgrass",crabgrass; [6],0
same,"Plant response rating, Crabgrass",crabgrass; [7],2
same,"Plant response rating, Crabgrass",crabgrass; [8],2
same,Crabgrass plant response rating,crabgrass; [9],2
same,Crabgrass plant response rating,crabgrass; [10],0
same,Crabgrass plant response rating,crabgrass; [11],0
same,Blackgrass plant response rating,blackgrass; [1],0
same,Blackgrass plant response rating,blackgrass; [5],0
same,"Plant response rating, Blackgrass",blackgrass; [6],0
same,"Plant response rating, Blackgrass",blackgrass; [7],0
same,"Plant response rating, Blackgrass",blackgrass; [8],0
same,Blackgrass plant response rating,blackgrass; [9],0
same,Blackgrass plant response rating,blackgrass; [10],0
same,Blackgrass plant response rating,blackgrass; [11],2
same,B. signalgrass plant response rating,surinam grass; [1],0
same,B. signalgrass plant response rating,surinam grass; [5],0
same,"Plant response rating, B. signalgrass",surinam grass; [6],0
same,"Plant response rating, B. signalgrass",surinam grass; [7],0
same,"Plant response rating, B. signalgrass",surinam grass; [8],0
same,B. signalgrass plant response rating,surinam grass; [9],0
same,B. signalgrass plant response rating,surinam grass; [10],0
same,B. signalgrass plant response rating,surinam grass; [11],0
same,Velvetleaf plant response rating,velvetleaf; [1],0
same,Velvetleaf plant response rating,velvetleaf; [5],0
same,"Plant response rating, Velvetleaf",velvetleaf; [6],0
same,"Plant response rating, Velvetleaf",velvetleaf; [7],0
same,"Plant response rating, Velvetleaf",velvetleaf; [8],0
same,Velvetleaf plant response rating,velvetleaf; [9],0
same,Velvetleaf plant response rating,velvetleaf; [10],0
same,Bedstraw plant response rating,bedstraw; [1],0
same,Bedstraw plant response rating,bedstraw; [5],0
same,"Plant response rating, Bedstraw",bedstraw; [6],0
same,"Plant response rating, Bedstraw",bedstraw; [7],0
same,"Plant response rating, Bedstraw",bedstraw; [8],0
same,Bedstraw plant response rating,bedstraw; [9],0
same,Bedstraw plant response rating,bedstraw; [10],0
same,Bedstraw plant response rating,bedstraw; [11],0
same,Sugarbeets plant response rating,sugar beet; [1],0
same,Sugarbeets plant response rating,sugar beet; [5],0
same,"Plant response rating, Sugarbeets",sugar beet; [6],0
same,"Plant response rating, Sugarbeets",sugar beet; [7],0
same,"Plant response rating, Sugarbeets",sugar beet; [8],0
same,Sugarbeets plant response rating,sugar beet; [9],0
same,Sugarbeets plant response rating,sugar beet; [10],0
same,Rice plant response rating,rice; [1],0
same,Rice plant response rating,rice; [2],0
same,Rice plant response rating,rice; [3],0
same,Rice plant response rating,rice; [4],0
same,Cocklebur plant response rating,cocklebur; [1],0
same,Cocklebur plant response rating,cocklebur; [5],0
same,"Plant response rating, Cocklebur",cocklebur; [6],0
same,"Plant response rating, Cocklebur",cocklebur; [7],0
same,"Plant response rating, Cocklebur",cocklebur; [8],0
same,Cocklebur plant response rating,cocklebur; [9],0
same,Cocklebur plant response rating,cocklebur; [10],0
same,Cocklebur plant response rating,cocklebur; [11],0
same,Wheat plant response rating,wheat; [1],0
same,Wheat plant response rating,wheat; [5],0
same,"Plant response rating, Wheat",wheat; [6],0
same,"Plant response rating, Wheat",wheat; [7],0
same,"Plant response rating, Wheat",wheat; [8],0
same,Wheat plant response rating,wheat; [9],0
same,Wheat plant response rating,wheat; [10],0
same,Corn plant response rating,corn; [1],0
same,Corn plant response rating,corn; [5],0
same,"Plant response rating, Corn",corn; [6],0
same,"Plant response rating, Corn",corn; [7],0
same,"Plant response rating, Corn",corn; [8],0
same,Corn plant response rating,corn; [9],0
same,Corn plant response rating,corn; [10],0
same,Corn plant response rating,corn; [11],0
same,Giant foxtail plant response rating,giant foxtail; [1],0
same,Giant foxtail plant response rating,giant foxtail; [5],0
same,"Plant response rating, Giant foxtail",giant foxtail; [6],0
same,"Plant response rating, Giant foxtail",giant foxtail; [7],2
same,"Plant response rating, Giant foxtail",giant foxtail; [8],3
same,Giant foxtail plant response rating,giant foxtail; [9],8
same,Giant foxtail plant response rating,giant foxtail; [10],0
same,Giant foxtail plant response rating,giant foxtail; [11],3
same,Nutsedge plant response rating,purple nutsedge; [1],0
same,Nutsedge plant response rating,purple nutsedge; [5],0
same,"Plant response rating, Nutsedge",purple nutsedge; [6],0
same,"Plant response rating, Nutsedge",purple nutsedge; [7],0
same,"Plant response rating, Nutsedge",purple nutsedge; [8],0
same,Nutsedge plant response rating,purple nutsedge; [9],0
same,Nutsedge plant response rating,purple nutsedge; [10],0
same,Nutsedge plant response rating,purple nutsedge; [11],0
same,Wild oats plant response rating,wild oat; [1],0
same,Wild oats plant response rating,wild oat; [5],0
same,"Plant response rating, Wild oats",wild oat; [7],0
same,"Plant response rating, Wild oats",wild oat; [8],0
same,Wild oats plant response rating,wild oat; [9],0
same,Wild oats plant response rating,wild oat; [10],0
same,Redroot pigweed plant response rating,pigweed; [1],0
same,Redroot pigweed plant response rating,pigweed; [5],0
same,"Plant response rating, Redroot pigweed",pigweed; [6],0
same,"Plant response rating, Redroot pigweed",pigweed; [7],0
same,"Plant response rating, Redroot pigweed",pigweed; [8],0
same,Redroot pigweed plant response rating,pigweed; [9],0
same,Redroot pigweed plant response rating,pigweed; [10],0
same,Redroot pigweed plant response rating,pigweed; [11],0

# From patent US6737383B1, “Herbicidal oxadiazolidines” (priority 1999, dated 2004)
